This is an account of results in patent publication US5053416A, “Derivatives of 1,2,5,6-tetrahydropyridine substituted by a thiazolyl or oxazolyl radical, their use as medicaments and compositions containing them” (Roussel Uclaf, priority 1988, dated 1991).

The subject of data set [1] is isolated ileum of a guinea-pig. The data set can be described thus: Test on the isolated ileum of a guinea-pig (contraction, agonist activity). As to conditions: Cavia porcellus, read-out: pD2 (converted).
Description: Fragments of the ileum of guinea-pigs killed by decapitation are removed. […] The contractions caused by the products are recorded using a sensor connected to a polygraph. The products under test are added, at concentrations comprised between 1.10^-3 M and 1.10^-8 M/l.
The products presenting a contracting effect are tested vis-a-vis atropine and hexamethonium to establish if the activity is of "muscarinic" or "nicotinic" type.
The possible antagonist activity of the products is tested vis-a-vis acetylcholine.
The agonist activity is expressed in pD2 (negative logarithm of the dose which produces 50% of the maximum effect).
Data set [2] deals with male mice (CD1 Charles Rivers). The data set can be described thus: Hypothermic activity (rectal body temperature). It is filed as in vivo. As to conditions: Mus musculus; for ED (-1 C): read-out: Effective dose (-1° C.) O.R.; for ED (1 C fall in body temperature): sc, read-out: Effective dose (-1° C.) SC.R.
Description: The test is carried out on male mice (CD1 Charles Rivers) weighing 25 to 30 g, without food for 6 hours.
The body temperature is noted by means of a thermocouple placed about 1.5 cm inside the rectum and connected to an electric temperature recorder.
The products are administered by oral or sub-cutaneous route and the temperatures are noted at 0 and 30 minutes, one hour, 2 hours and 2 hours 30 minutes after treatment.
The degree of hypothermia is evaluated as the difference between the treated animals and the controls and the dose necessary to reduce the body temperature by 1° C. is determined.
Data set [3] concerns male mice (CD1 Charles Rivers). The data set can be described thus: Diarrhoeic activity, oral. As to conditions: for ED50: Mus musculus, po, read-out: DE50.
Description: The test is carried out on male mice (CD1 Charles Rivers) weighing 25 to 30 g, without food for 6 hours. The product at 5% in methocel is administered by oral route, by means of an oesophagus probe.
Control animals receive only the excipient.
The sheets of absorbent paper are changed after each observation.
1: slightly soft faeces with or without moist circle,
2: slightly soft faeces with presence of a well-defined moist circle,
3: soft faeces with presence of a large moist circle,
4: faeces without consistency with presence of a very large moist circle.
Data set [4] in a line: in vivo. The note with it: mouse, male mice, oral route, mortality during 7 days following treatment.
Description: The test is carried out on male mice (CD1 Charles Rivers) of 22 to 24 g, without food for 16 hours. […] The mortality is noted during the 7 days following treatment.
The mark [5] stands for this setting: negative logarithm of the dose which produces 50% of the maximum effect, Tyrode's solution at 37° C.
The mark [6] stands for this setting: sub-cutaneous route, dose necessary to reduce the body temperature by 1° C.
The mark [7] stands for this setting: oral route, dose necessary to reduce the body temperature by 1° C.

Read-outs that look alike come from different tables or passages of the source.

Take `COC(=O)C1=CCCN(C)C1` [Aerocoline, HBr, reference compound]: in data set [1], the EC50 is 0.331 µM. For the same compound, the ED (-1 C) in data set [2] (po) came to 194 mg/kg. Further, in data set [2], the ED (1 C fall in body temperature) was 3 mg/kg. Also, the DE50 in data set [3] (male mice, oral route, dose which causes diarrhoea in 50% of the animals) is reported as 35 mg/kg.

By LD50 is commonly meant the dose at which mortality reaches 50%. High values mean lower toxicity, low ones greater toxicity. In data set [4], `ON1CCC=C(c2ncco2)C1` [Example 10, 1-hydroxy-3-(oxazol-2-yl)-1,2,5,6-tetrahydropyridine] had an LD50 at 168 h of 300 mg/kg. The EC50 in data set [1] (setting [5]) was above 100 µM. Moreover, the ED (1 C fall in body temperature) in data set [2] (setting [6]) is 4.1 mg/kg. For the same compound, in data set [2] (setting [7]), the ED (-1 C) came out at 4.2 mg/kg. For the same compound, the ED50 in data set [3] was found to be 10 mg/kg.

`C1=C(c2ncco2)CNCC1.Cl` [Example 6, 3-(oxazol-2-yl)-1,2,5,6-tetrahydropyridine hydrochloride]: the LD50 at 168 h in data set [4] stood at 200 mg/kg. Moreover, the EC50 in data set [1] (setting [5]) is 1.95 µM. In data set [2] (setting [6]), the ED (1 C fall in body temperature) was 3.2 mg/kg. Further, in data set [2] (setting [7]), the ED (-1 C) was determined as 3.2 mg/kg. In data set [3], the ED50 amounted to 15 mg/kg.

In data set [4], `Cc1cnc(C2=CCCNC2)o1.Cl` [Example 8, 3-(5-methyloxazol-2-yl)-1,2,5,6-tetrahydropyridine hydrochloride] showed an LD50 at 168 h of 500 mg/kg. For the same compound, the EC50 in data set [1] (setting [5]) was 5.89 µM. Moreover, the ED (1 C fall in body temperature) in data set [2] (setting [6]) was 25 mg/kg. In addition, the ED (-1 C) in data set [2] (setting [7]) came out at 24 mg/kg.

As to `Cc1coc(C2=CCCNC2)n1.Cl` [Example 2, 3-(4-methyloxazol-2-yl)-1,2,5,6-tetrahydropyridine hydrochloride], the LD50 at 168 h in data set [4] came out at 125 mg/kg. Moreover, in data set [1] (setting [5]), the EC50 was 1.07 µM. Further, in data set [2] (setting [6]), the ED (1 C fall in body temperature) was found to be 1.7 mg/kg. Further, the ED (-1 C) in data set [2] (setting [7]) was 2.6 mg/kg. Moreover, the ED50 in data set [3] is 3 mg/kg.
